Results published in patent publication US20090093010A1, “Method of Detecting Kidney Dysfunction” (University of Manitoba, priority 2004, published 2009).
“Also recorded” adds a separate entry of the source. Where a SMILES comes first, the peptide text is derived from it. [ ]: non-standard residue; d: D form. The star is where a group is joined. Sta = CC(C)C[C@H](N)[C@@H](O)CC(=O)O; Isovaleryl = CC(C)CC(=O)*

Legend:
Assay type in all cases: biochemical, human
[1] = system: protease family responsible for β2-microglobulin cleavage in urine; assay: Determination of the protease family responsible for β2-microglobulin cleavage (urine spiked with intact β2-microglobulin and protease inhibitors, SELDI-TOF-MS); settings: urine at pH 5, intact β2-microglobulin 10 mg/L, 37° C.; pepstatin 14.5 μM, Complete-Mini (EDTA-free) 0.2 tablets/mL, EDTA 20 mM
Procedure: These samples were then analysed by SELDI-TOF-MS immediately (column 1) and after 6 hours of incubation at 37° C. (column 2).
One mL of a urine sample from a healthy individual (total protein 110 mg/L, creatinine 18.9 mM, pH 5) and 1 mL of a urine sample from a patient with an acute clinical rejection episode showing the protein peak clusters (total protein 230 mg/L, creatinine 11.6 mM, pH 5) were incubated for 16 hours at 37° C. to degrade existing intact and cleaved β2-m. Four hundred μL of each sample were mixed with sodium acetate pH 5 (final concentration 166 mM) to ensure, stable pH and divided into four portions of 100 μL. Pepstatin (final concentration 14.5 μM), Complete-Mini (EDTA-free) (final concentration 0.2 tablets/mL), EDTA (final concentration 20 mM) or no protease inhibitors were added to each portion. Another 100 μL of each urine sample was brought to pH 6 by adding MES pH 6 (final concentration 166 mM). […] SELDI-TOF-MS analysis was performed immediately and after 1, 2, 4, 6 and 24 hours of incubation at 37° C.

[2] = system: serine and/or cysteine proteinases cleaving Y63 and F62 of the β2-microglobulin long chain; assay: Inhibition of cleavage of Y63 and F62 on the long chain (I1-Y63) of cleaved β2-microglobulin; settings: occurs even at pH 6; EDTA 20 mmol/L
Excerpt: Further confirmed non-tryptic cleavage sites on the long chain occur at F62 and then at S61, resulting in three major forms of long chains with calculated molecular weights of 7358.19 Da (I1-Y63), 7195.01 Da (I1-F62) and 7047.83 Da (I1-S61) (see FIG. 25B). […] In addition, three cleavage sites on the long chain have been identified by μLC-MS/MS (F22, N24 and C25), however, the resulting fragments were not detectable by SELDI-TOF-MS.

[3] = system: aspartic proteinase(s) performing initial cleavage of intact urinary β2-microglobulin; assay: Inhibition of initial cleavage of intact urinary β2-microglobulin in patient urine at pH 4.5 (SELDI-TOF-MS); settings: patient urine brought to pH 4.5
Procedure: Pepstatin is a well-established inhibitor of aspartic proteinases. […] Different proteinase-inhibitors were added (Pepstatin and Complete Mini EDTA-free, both from Roche, Switzerland).

Row | SMILES | Inhibition of cleavage of intact β2-microglobulin [1] | Inhibition of the cleavage of the two amino acids Y63 and F62 on the long chain [2] | Detectability of the intact form of β2-microglobulin after 6 to 24 hours in urine spiked with proteinase inhibitor [3]
1 | O=C(O)CN(CCN(CC(=O)O)CC(=O)O)CC(=O)O [EDTA] | not | not | –
2 | CC(C)CC(=O)N[C@H](C(=O)N[C@H](C(=O)N[C@@H](CC(C)C)[C@@H](O)CC(=O)N[C@@H](C)C(=O)N[C@@H](CC(C)C)[C@@H](O)CC(=O)O)C(C)C)C(C)C [Pepstatin] (Isovaleryl-VV[Sta]A[Sta]-OH) | could prevent β2-microglobulin cleavages; also recorded: could be inhibited; also recorded: could inhibit β2-microglobulin cleavage | not | still detectable in unchanged intensity; also recorded: can be inhibited
